Experimental data as given in ChEMBL document CHEMBL1201862, “PubChem BioAssay data set” (2004).
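1) Cells in 96-well plates. 2) Compound, 48 h, 5 concentrations. 3) Linear interpolation between surrounding doses. 4) Unreached endpoint = highest concentration. Here, GI50 denotes the concentration required for 50% inhibition of growth.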 Calls of active or inactive are those of the source. Cut-off read from the data, not from the text of the source: active = GI50 up to about 1.1 µM and inactive = higher.

Key:
Test in all cases: NCI tumour cell line growth inhibition, 48 h
RPMI-8226 = system: RPMI-8226
HCT-116 = system: HCT-116
IGROV-1 = system: IGROV-1
A498 = system: A498
NCI-H226 = system: NCI-H226
SK-MEL-5 = system: SK-MEL-5
T47D = system: T47D
ACHN = system: ACHN
OVCAR-8 = system: OVCAR-8
MCF7 = system: MCF7
UACC-62 = system: UACC-62
MDA-N = system: MDA-N
NCI-H522 = system: NCI-H522
A549 = system: A549
SNB-75 = system: SNB-75
NCI/ADR-RES = system: NCI/ADR-RES
SNB-19 = system: SNB-19
SF-539 = system: SF-539
SW-620 = system: SW-620
EKVX = system: EKVX
UO-31 = system: UO-31
PC-3 = system: PC-3
HOP-62 = system: HOP-62
UACC-257 = system: UACC-257
Malme-3M = system: Malme-3M
HCT-15 = system: HCT-15
Hs-578T = system: Hs-578T
MDA-MB-435 = system: MDA-MB-435
MOLT-4 = system: MOLT-4
U-251 = system: U-251
OVCAR-4 = system: OVCAR-4
CCRF-CEM = system: CCRF-CEM
MDA-MB-231 = system: MDA-MB-231
OVCAR-3 = system: OVCAR-3
RXF 393 = system: RXF 393
HOP-92 = system: HOP-92
786-0 = system: 786-0
HCC 2998 = system: HCC 2998
NCI-H23 = system: NCI-H23
SR = system: SR
DU-145 = system: DU-145
M14 = system: M14
SN12C = system: SN12C
TK-10 = system: TK-10
SK-MEL-2 = system: SK-MEL-2
OVCAR-5 = system: OVCAR-5
LOX IMVI = system: LOX IMVI
SK-MEL-28 = system: SK-MEL-28
SF-295 = system: SF-295
HL-60 = system: HL-60
SF-268 = system: SF-268
COLO 205 = system: COLO 205
KM12 = system: KM12
SK-OV-3 = system: SK-OV-3
NCI-H460 = system: NCI-H460
K562 = system: K562
CAKI-1 = system: CAKI-1
HT-29 = system: HT-29

Measured: GI50

CC#CC(O)(C(=O)OC1CCCN(C)C1)C1=CC=CCC1 (centres undefined)
active: NCI/ADR-RES 0.49 µM
inactive: RPMI-8226 > 100 µM | HCT-116 > 100 µM | IGROV-1 > 100 µM | A498 > 100 µM | NCI-H226 > 100 µM | SK-MEL-5 > 100 µM | T47D > 100 µM | ACHN > 100 µM | OVCAR-8 > 100 µM | MCF7 > 100 µM | UACC-62 > 100 µM | MDA-N > 100 µM | NCI-H522 > 100 µM | A549 > 100 µM | SNB-75 > 100 µM | SNB-19 > 100 µM | SF-539 > 100 µM | SW-620 > 100 µM | EKVX > 100 µM | UO-31 > 100 µM | PC-3 > 100 µM | HOP-62 > 100 µM | UACC-257 > 100 µM | Malme-3M > 100 µM | Hs-578T > 100 µM | MDA-MB-435 > 100 µM | MOLT-4 > 100 µM | U-251 > 100 µM | OVCAR-4 > 100 µM | CCRF-CEM > 100 µM | MDA-MB-231 > 100 µM | OVCAR-3 > 100 µM | RXF 393 > 100 µM | HOP-92 > 100 µM | 786-0 > 100 µM | HCC 2998 > 100 µM | NCI-H23 > 100 µM | SR > 100 µM | DU-145 > 100 µM | M14 > 100 µM | SN12C > 100 µM | TK-10 > 100 µM | SK-MEL-2 > 100 µM | OVCAR-5 > 100 µM | LOX IMVI > 100 µM | SK-MEL-28 > 100 µM | SF-295 > 100 µM | HL-60 > 100 µM | SF-268 > 100 µM | COLO 205 > 100 µM | KM12 > 100 µM | SK-OV-3 > 100 µM | NCI-H460 > 100 µM | K562 > 100 µM | CAKI-1 > 100 µM | HT-29 > 100 µM
> 100 µM: HCT-15

CSc1ccc(C(=O)C(=O)c2ccc(SC)s2)s1
> 10 µM: HCT-15
inactive: RPMI-8226 4.86 µM | HCT-116 > 10 µM | IGROV-1 > 10 µM | NCI-H226 > 10 µM | SK-MEL-5 > 10 µM | T47D > 10 µM | ACHN > 10 µM | OVCAR-8 > 10 µM | MCF7 5.58 µM | UACC-62 > 10 µM | MDA-N 4.6 µM | NCI-H522 > 10 µM | A549 > 10 µM | SNB-75 > 10 µM | NCI/ADR-RES 8.45 µM | SNB-19 > 10 µM | SF-539 4.85 µM | SW-620 > 10 µM | EKVX > 10 µM | UO-31 > 10 µM | PC-3 > 10 µM | HOP-62 3.93 µM | UACC-257 > 10 µM | Hs-578T 3.46 µM | MDA-MB-435 4.34 µM | MOLT-4 2.51 µM | U-251 > 10 µM | OVCAR-4 7.24 µM | CCRF-CEM 3.15 µM | MDA-MB-231 > 10 µM | OVCAR-3 > 10 µM | RXF 393 > 10 µM | HOP-92 > 10 µM | 786-0 6.64 µM | HCC 2998 > 10 µM | NCI-H23 > 10 µM | SR 3.92 µM | DU-145 > 10 µM | M14 > 10 µM | SN12C > 10 µM | TK-10 > 10 µM | SK-MEL-2 > 10 µM | OVCAR-5 > 10 µM | LOX IMVI > 10 µM | SK-MEL-28 > 10 µM | SF-295 > 10 µM | HL-60 3.43 µM | SF-268 > 10 µM | COLO 205 > 10 µM | KM12 > 10 µM | SK-OV-3 > 10 µM | NCI-H460 > 10 µM | K562 6.32 µM | CAKI-1 > 10 µM | HT-29 > 10 µM
